Patent US10897901B2, “Herbicidal composition” (FMC Corporation, priority 2007, dated 2021)

How the values were obtained:
Format in all cases: in vivo
[1] = tested on: Redroot Pigweed (Amaranthus retroflexus); assay: Example 4 post-emergence greenhouse pot test, pigweed
Procedure: (§1) Test compositions containing sulfentrazone (75 DF formulation), quniclorac, (DRIVE® 75 DF Herbicide) or mixtures of sulfentrazone and quinclorac at ratios of 1:1 to 1:5, were diluted with water to provide the appropriate test rate concentrations. A nonionic surfactant (0.25%) was added to each test solution. The test weeds include crabgrass (Digitaria sp), Chickweed (Stellaria media), Hemp Sesbania (Sesbania exaltata), Kochia (Kochia scoparia), Ivyleaf Morningglory (Ipomoea hederacea), Redroot Pigweed (Amaranthus retroflexus) and yellow nutsedge (Cyperus esculentusi).
(§2) For post-emergence testing, three disposable 3 inch square pots for each rate of application of each herbicide were filled with a soil, comprised of peat moss, vermiculite, bark ash, pine bark, limestone and a wetting agent, to which 8 to 10 seeds were planted. The pots were placed in a greenhouse and watered daily, thus allowing the seeds to germinate and the foliage to develop for 22 days, 3 months for Kochia.
(§3) Pots designated for treatment were placed on a conveyor belt and the conveyor belt fed under a spray nozzle mounted about ten inches above the foliage. The spray of herbicidal solution was commenced and once stabilized; the pots were passed under the spray at a speed to receive a coverage equivalent of 30 gallons per acre. The application rates are those shown in Table 4 below for the individual herbicidal solutions and the mixture of sulfentrazone and quinclorac. The post-emergence pots were immediately placed in the green-house and not watered until 24 hours after treatment with the test solution. Thereafter they were regularly watered at ground level. The control of weeds was evaluated in each experimental test from 2 to 20 days after treatment (DAT). The results, shown as an average of the replications, were compared with results observed in untreated control pots in the same tests.
(§4) Percent control was determined by a method similar to the 0 to 100 rating system disclosed in “Research Methods in Weed Science,” 2nd ed., B. Truelove, Ed.; Southern Weed Science Society; Auburn University, Auburn, Ala., 1977.

[2] = tested on: yellow nutsedge (Cyperus esculentusi); assay: Example 4 post-emergence greenhouse pot test, nutsedge
Procedure: as §1, §2, §3, §4

Kochia (Kochia scoparia) = assay: Example 4 post-emergence greenhouse pot test, kochia
Procedure: as §1, §2, §3, §4

[3] = tested on: Smooth Crabgrass (Digitaria ischaemum); assay: Example 1 post-emergent turf plot test, 3 leaf/2 tiller crabgrass
Procedure: (§5) The experimental design used randomized plots with post-emergent treatment and three replications per test trial. The size of each experimental plot was 4 feet by 6 feet. The application of each test composition was performed with pressurized back-pack sprayers, calibrated to spray 200 gallons per acre. Test compositions containing sulfentrazone (DISMISS™ Turf Herbicide), quniclorac, (FACET® 75 DF herbicide) or a mixture of sulfentrazone and quinclorac in a 1:3 ratio, prepared as described above, were diluted with water to provide the appropriate test rate concentrations.
(§6) The control of weeds was evaluated in each experimental plot from 7 to 41 days after treatment (DAT) of each test rate. The results, shown as an average of the replications, were compared with results observed in untreated control plots in the same trials.

[4] = tested on: Ivyleaf Morningglory (Ipomoea hederacea); assay: Example 4 post-emergence greenhouse pot test, morningglory
Procedure: as §1, §2, §3, §4

[5] = tested on: Yellow Nutsedge (Cyperus esculentus); assay: Example 1 post-emergent turf plot test, nutsedge
Procedure: as §5, §6

[6] = tested on: Blackseed Plantain (Plantago rugelii); assay: Example 2 post-emergent turf plot test, plantain
Procedure: as §5, with “quinclorac,” for “quniclorac,”, “one to three” for “1:3”
The control of weeds was evaluated in each experimental plot from 1 to 27 days after treatment (DAT) of each test rate. The results, shown as an average of the replications, were compared with results observed in untreated control plots in the same trials.

Cc1nn(-c2cc(NS(C)(=O)=O)c(Cl)cc2Cl)c(=O)n1C(F)F [A, N-[2,4-dichloro-5-[4-(difluoromethyl)-4,5-dihydro-3-methyl-5-oxo-1H-1,2,4-triazol-1-yl]phenyl]methanesulfonamide]
Percent Control ([1]; 0.25 lb ai/acre, 2 DAT): 80% | Percent Control ([1]; 0.25 lb ai/acre, 7 DAT): 95% | Percent Control ([1]; 0.25 lb ai/acre, 14 DAT): 99% | Percent Control ([1]; 0.25 lb ai/acre, 20 DAT): 90% | Percent Control ([2]; 0.25 lb ai/acre, 2 DAT): 25% | Percent Control ([2]; 0.25 lb ai/acre, 7 DAT): 60% | Percent Control ([2]; 0.25 lb ai/acre, 14 DAT): 85% | Percent Control ([2]; 0.25 lb ai/acre, 20 DAT): 95% | Percent Control (Kochia (Kochia scoparia); 0.25 lb ai/acre, 2 DAT): 10% | Percent Control (Kochia (Kochia scoparia); 0.25 lb ai/acre, 7 DAT): 70% | Percent Control (Kochia (Kochia scoparia); 0.25 lb ai/acre, 14 DAT): 95% | Percent Control (Kochia (Kochia scoparia); 0.25 lb ai/acre, 20 DAT): 99% | Percent Control ([3]; 0.57 lb ai/acre, 7 DAT): 70% | Percent Control ([3]; 0.57 lb ai/acre, 14 DAT): 78% | Percent Control ([3]; 0.57 lb ai/acre, 21 DAT): 86% | Percent Control ([3]; 0.57 lb ai/acre, 28 DAT): 75% | Percent Control ([3]; 0.57 lb ai/acre, 41 DAT): 71% | Percent Control ([4]; 0.25 lb ai/acre, 2 DAT): 60% | Percent Control ([4]; 0.25 lb ai/acre, 7 DAT): 80% | Percent Control ([4]; 0.25 lb ai/acre, 14 DAT): 90% | Percent Control ([4]; 0.25 lb ai/acre, 20 DAT): 99% | Percent Control ([5]; 0.57 lb ai/acre, 7 DAT): 50% | Percent Control ([5]; 0.57 lb ai/acre, 14 DAT): 75% | Percent Control ([5]; 0.57 lb ai/acre, 21 DAT): 89% | Percent Control ([5]; 0.57 lb ai/acre, 28 DAT): 91% | Percent Control ([6]; 0.57 lb ai/acre, 7 DAT): 100% | Percent Control ([6]; 0.57 lb ai/acre, 14 DAT): 100% | Percent Control ([6]; 0.57 lb ai/acre, 21 DAT): 100%

O=C(O)c1c(Cl)ccc2cc(Cl)cnc12 [B, 3,7-dichloro-8-quinolinecarboxylic acid]
Percent Control ([1]; 0.25 lb ai/acre, 2 DAT): 10% | Percent Control ([1]; 0.25 lb ai/acre, 7 DAT): 10% | Percent Control ([1]; 0.25 lb ai/acre, 14 DAT): 10% | Percent Control ([1]; 0.25 lb ai/acre, 20 DAT): 10% | Percent Control ([1]; 0.5 lb ai/acre, 2 DAT): 0% | Percent Control ([1]; 0.5 lb ai/acre, 7 DAT): 0% | Percent Control ([1]; 0.5 lb ai/acre, 14 DAT): 0% | Percent Control ([1]; 0.5 lb ai/acre, 20 DAT): 0% | Percent Control ([1]; 0.75 lb ai/acre, 2 DAT): 0% | Percent Control ([1]; 0.75 lb ai/acre, 7 DAT): 0% | Percent Control ([1]; 0.75 lb ai/acre, 14 DAT): 0% | Percent Control ([1]; 0.75 lb ai/acre, 20 DAT): 0% | Percent Control ([1]; 1.0 lb ai/acre, 2 DAT): 0% | Percent Control ([1]; 1.0 lb ai/acre, 7 DAT): 0% | Percent Control ([1]; 1.0 lb ai/acre, 14 DAT): 0% | Percent Control ([1]; 1.0 lb ai/acre, 20 DAT): 0% | Percent Control ([1]; 1.25 lb ai/acre, 2 DAT): 10% | Percent Control ([1]; 1.25 lb ai/acre, 7 DAT): 10% | Percent Control ([1]; 1.25 lb ai/acre, 14 DAT): 10% | Percent Control ([1]; 1.25 lb ai/acre, 20 DAT): 10% | Percent Control ([2]; 0.25 lb ai/acre, 2 DAT): 0% | Percent Control ([2]; 0.25 lb ai/acre, 7 DAT): 0% | Percent Control ([2]; 0.25 lb ai/acre, 14 DAT): 0% | Percent Control ([2]; 0.25 lb ai/acre, 20 DAT): 0% | Percent Control ([2]; 0.5 lb ai/acre, 2 DAT): 0% | Percent Control ([2]; 0.5 lb ai/acre, 7 DAT): 0% | Percent Control ([2]; 0.5 lb ai/acre, 14 DAT): 0% | Percent Control ([2]; 0.5 lb ai/acre, 20 DAT): 0% | Percent Control ([2]; 0.75 lb ai/acre, 2 DAT): 0% | Percent Control ([2]; 0.75 lb ai/acre, 7 DAT): 0% | Percent Control ([2]; 0.75 lb ai/acre, 14 DAT): 0% | Percent Control ([2]; 0.75 lb ai/acre, 20 DAT): 0% | Percent Control ([2]; 1.0 lb ai/acre, 2 DAT): 0% | Percent Control ([2]; 1.0 lb ai/acre, 7 DAT): 0% | Percent Control ([2]; 1.0 lb ai/acre, 14 DAT): 0% | Percent Control ([2]; 1.0 lb ai/acre, 20 DAT): 0% | Percent Control ([2]; 1.25 lb ai/acre, 2 DAT): 0% | Percent Control ([2]; 1.25 lb ai/acre, 7 DAT): 0% | Percent Control ([2]; 1.25 lb ai/acre, 14 DAT): 0% | Percent Control ([2]; 1.25 lb ai/acre, 20 DAT): 0% | Percent Control (Kochia (Kochia scoparia); 0.25 lb ai/acre, 2 DAT): 0% | Percent Control (Kochia (Kochia scoparia); 0.25 lb ai/acre, 7 DAT): 0% | Percent Control (Kochia (Kochia scoparia); 0.25 lb ai/acre, 14 DAT): 5% | Percent Control (Kochia (Kochia scoparia); 0.25 lb ai/acre, 20 DAT): 5% | Percent Control (Kochia (Kochia scoparia); 0.5 lb ai/acre, 2 DAT): 0% | Percent Control (Kochia (Kochia scoparia); 0.5 lb ai/acre, 7 DAT): 0% | Percent Control (Kochia (Kochia scoparia); 0.5 lb ai/acre, 14 DAT): 20% | Percent Control (Kochia (Kochia scoparia); 0.5 lb ai/acre, 20 DAT): 20% | Percent Control (Kochia (Kochia scoparia); 0.75 lb ai/acre, 2 DAT): 0% | Percent Control (Kochia (Kochia scoparia); 0.75 lb ai/acre, 7 DAT): 0% | Percent Control (Kochia (Kochia scoparia); 0.75 lb ai/acre, 14 DAT): 10% | Percent Control (Kochia (Kochia scoparia); 0.75 lb ai/acre, 20 DAT): 5% | Percent Control (Kochia (Kochia scoparia); 1.0 lb ai/acre, 2 DAT): 0% | Percent Control (Kochia (Kochia scoparia); 1.0 lb ai/acre, 7 DAT): 0% | Percent Control (Kochia (Kochia scoparia); 1.0 lb ai/acre, 14 DAT): 10% | Percent Control (Kochia (Kochia scoparia); 1.0 lb ai/acre, 20 DAT): 20% | Percent Control (Kochia (Kochia scoparia); 1.25 lb ai/acre, 2 DAT): 0% | Percent Control (Kochia (Kochia scoparia); 1.25 lb ai/acre, 7 DAT): 0% | Percent Control (Kochia (Kochia scoparia); 1.25 lb ai/acre, 14 DAT): 10% | Percent Control (Kochia (Kochia scoparia); 1.25 lb ai/acre, 20 DAT): 10% | Percent Control ([3]; 0.75 lb ai/acre, 7 DAT): 75% | Percent Control ([3]; 0.75 lb ai/acre, 14 DAT): 55% | Percent Control ([3]; 0.75 lb ai/acre, 21 DAT): 78% | Percent Control ([3]; 0.75 lb ai/acre, 28 DAT): 67% | Percent Control ([3]; 0.75 lb ai/acre, 41 DAT): 57% | Percent Control ([4]; 0.25 lb ai/acre, 2 DAT): 20% | Percent Control ([4]; 0.25 lb ai/acre, 7 DAT): 25% | Percent Control ([4]; 0.25 lb ai/acre, 14 DAT): 60% | Percent Control ([4]; 0.25 lb ai/acre, 20 DAT): 70% | Percent Control ([4]; 0.5 lb ai/acre, 2 DAT): 20% | Percent Control ([4]; 0.5 lb ai/acre, 7 DAT): 25% | Percent Control ([4]; 0.5 lb ai/acre, 14 DAT): 40% | Percent Control ([4]; 0.5 lb ai/acre, 20 DAT): 50% | Percent Control ([4]; 0.75 lb ai/acre, 2 DAT): 20% | Percent Control ([4]; 0.75 lb ai/acre, 7 DAT): 25% | Percent Control ([4]; 0.75 lb ai/acre, 14 DAT): 40% | Percent Control ([4]; 0.75 lb ai/acre, 20 DAT): 50% | Percent Control ([4]; 1.0 lb ai/acre, 2 DAT): 20% | Percent Control ([4]; 1.0 lb ai/acre, 7 DAT): 25% | Percent Control ([4]; 1.0 lb ai/acre, 14 DAT): 50% | Percent Control ([4]; 1.0 lb ai/acre, 20 DAT): 70% | Percent Control ([4]; 1.25 lb ai/acre, 2 DAT): 20% | Percent Control ([4]; 1.25 lb ai/acre, 7 DAT): 25% | Percent Control ([4]; 1.25 lb ai/acre, 14 DAT): 40% | Percent Control ([4]; 1.25 lb ai/acre, 20 DAT): 50% | Percent Control ([5]; 0.75 lb ai/acre, 7 DAT): 100% | Percent Control ([5]; 0.75 lb ai/acre, 14 DAT): 40% | Percent Control ([5]; 0.75 lb ai/acre, 21 DAT): 10% | Percent Control ([5]; 0.75 lb ai/acre, 28 DAT): 13% | Percent Control ([6]; 0.75 lb ai/acre, 7 DAT): 83% | Percent Control ([6]; 0.75 lb ai/acre, 14 DAT): 100% | Percent Control ([6]; 0.75 lb ai/acre, 21 DAT): 100%
